Data on four compounds can be found in patent US8883963B2 (Cadila Healthcare Limited, priority 2007, dated 2014).

Test [1] has as its system C57BL/6J mice (mild hyperglycemic). Briefly: In vivo glucose reduction, acute single dose 120-min time-course, i.p. route. The settings on record: male C57BL/6J mice. Also on record: species or system mouse; unit not given here.
For test [2] the test system is unchanged. In words: In vivo glucose reduction, acute single dose 120-min time-course, oral route. Also noted: species or system mouse; unit not given here. The settings on record: male C57BL/6J mice, 2 μM/kg oral. How it is done: Acute single dose 120-min time-course experiments were carried out in male C57BL/6J or db/db mice, age 8-12 weeks, bred in-house. Animals were housed in groups of 6 animals per cage, for a week, in order to habituate them to vivarium conditions (25±4° C., 60-65% relative humidity, 12:12 h light:dark cycle, with lights on at 7.30 am). All the animal experiments were carried out according to the internationally valid guidelines following approval by the ‘Zydus Research Center animal ethical committee’.
Two days prior to the study, the animals were randomised and divided into 5 groups (n=6), based upon their fed glucose levels. On the day of experiment, food was withdrawn from all the cages, water was given ad-libitum and were kept for overnight fasting. Vehicle (normal saline)/test/standard compounds were administered intraperitoneally (i.p.) or orally, on a body weight basis. Soon after the 0 min. blood collection from each animal, the subsequent blood collections were done at 30, 60 and 120 or up to 240 min., via retro-orbital route, under light ether anesthesia (Chen, D., et al., Diabetes Obesity Metabolism, 2005, 7, 307. Kim, J. G. et al., Diabetes, 2003, 52, 751).
Blood samples were centrifuged and the separated serum was immediately subjected for the glucose estimation. Serum for insulin estimation was stored at −70° C. until used for the insulin estimation. The glucose estimation was carried out with DPEC-GOD/POD method (Ranbaxy Fine Chemicals Limited, Diagnostic division, India), using Spectramax-190, in 96-microwell plate reader (Molecular devices Corporation, Sunnyvale, Calif.). […] The AUC and BCAUC obtained from graphs were analyzed for one way ANOVA, followed by Dunnett's post test, using Graph Pad prism software. Furthermore, the insulin estimation was carried out using rat/mouse insulin ELISA kit (Linco research, Missouri USA). Changes in the blood glucose levels, at 0, 30, 60 and 120 min, with selected peptidomimetics are shown in Table 7 (via ip route of administration) and Table 8 (via oral route of administration) respectively.

For the compound `CCc1cc(OC)ccc1-c1ccc(CC(CNC(CCCc2ccccc2)C(N)=O)NC(=O)[C@H](CC(=O)O)NC(=O)[C@H](CO)NC(=O)[C@@H](NC(=O)C(C)(Cc2ccccc2F)NC(=O)[C@@H](NC(=O)CNC(=O)C(CCC#N)NC(=O)C(C)(C)NC(=O)[C@@H](N)Cc2c[nH]cn2)[C@H](C)O)[C@H](C)O)cc1` (single isomer, unassigned) [Seq. ID. 190], the blood glucose levels in test [1] (10 nM/kg i.p., 0 min) turned out to be 182 ± 2.1; in test [1] (10 nM/kg i.p., 30 min), 121 ± 2.9; in test [1] (10 nM/kg i.p., 60 min) it was 130 ± 3.1; in test [1] (10 nM/kg i.p., 120 min) it was 138 ± 2.4; in test [2] (0 min), 183 ± 2.1; in test [2] (30 min), 118 ± 3.4. Also, the blood glucose levels in test [2] (60 min) amounted to 113 ± 4.6; in test [2] (120 min), 111 ± 2.8.

As for `CCc1cc(OC)ccc1-c1ccc(CC(NC(=S)[C@H](CC(=O)O)NC(=O)[C@H](CO)NC(=O)[C@@H](NC(=O)C(C)(Cc2ccccc2F)NC(=O)[C@@H](NC(=O)CNC(=O)C(CCC#N)NC(=O)C(C)(C)NC(=O)[C@@H](N)Cc2c[nH]cn2)[C@H](C)O)[C@H](C)O)C(=S)NC(CCCc2ccccc2F)C(N)=O)cc1` (single isomer, unassigned) [Seq. ID. 180], the blood glucose levels turned out to be 180 ± 3.1 in test [1] (20 nM/kg i.p., 0 min); 122 ± 3.9 in test [1] (20 nM/kg i.p., 30 min); 129 ± 2.2 in test [1] (20 nM/kg i.p., 60 min); 140 ± 2.9 in test [1] (20 nM/kg i.p., 120 min); 184 ± 2.2 in test [2] (0 min); 118 ± 3.3 in test [2] (30 min). For the same compound, the blood glucose levels in test [2] (60 min) was determined as 112 ± 4.4; in test [2] (120 min), 110 ± 2.9.

`CCc1cc(OC)ccc1-c1ccc(CC(NC(=O)[C@H](CC(=O)O)NC(=O)[C@H](CO)NC(=O)[C@@H](NC(=O)C(C)(Cc2ccccc2F)NC(=O)[C@@H](NC(=O)CNC(=O)C(CCC#N)NC(=O)C(C)(C)NC(=O)[C@@H](N)Cc2c[nH]cn2)[C@@H](C)O)[C@H](C)O)C(=O)NC(CCCc2ccccc2F)C(N)=O)cc1` (single isomer, unassigned) [Seq. ID. 120]: the blood glucose levels in test [1] (30 nM/kg i.p., 0 min) is on record as 182 ± 5.1; in test [1] (30 nM/kg i.p., 30 min), 118 ± 2.1; in test [1] (30 nM/kg i.p., 60 min) it was 116 ± 2.2; in test [1] (30 nM/kg i.p., 120 min) it was 118 ± 2.4; in test [2] (0 min) it was 184 ± 2.5; in test [2] (30 min), 115 ± 1.6. Further, the blood glucose levels in test [2] (60 min) came out at 113 ± 3.2; in test [2] (120 min), 110 ± 2.4.

`CCc1cc(OC)ccc1-c1ccc(CC(NC(=O)[C@H](CC(=O)O)NC(=O)[C@H](CO)NC(=O)[C@@H](NC(=O)[C@H](Cc2ccccc2)NC(=O)[C@@H](NC(=O)CNC(=O)C(CCC#N)NC(=O)C(C)(C)NC(=O)[C@@H](N)Cc2c[nH]cn2)[C@@H](C)O)[C@@H](C)O)C(=O)NC(CCCc2ccc(Cl)cc2C)C(N)=O)cc1` (single isomer, unassigned) [Seq. ID. 32]: the blood glucose levels was found to be 182 ± 3.3 in test [1] (20 nM/kg i.p., 0 min); 120 ± 3.6 in test [1] (20 nM/kg i.p., 30 min); 127 ± 3.4 in test [1] (20 nM/kg i.p., 60 min); 145 ± 2.1 in test [1] (20 nM/kg i.p., 120 min); 181 ± 2.5 in test [2] (0 min); 117 ± 3.3 in test [2] (30 min). In addition, the blood glucose levels came out at 112 ± 4.0 in test [2] (60 min) and 108 ± 2.9 in test [2] (120 min).
